Laboratory results as given in patent US12240857B2 (priority 2017, dated 2025).
Counter-ions that a name gives are not always drawn. Like-named read-outs stand apart in the source and are kept apart here.

Key:
[1] = test system: EBOV mucin-domain-deleted glycoprotein pseudotyped VSV; assay: microbe, parasite or virus in culture; assay type: cell-based, Zaire ebolavirus; settings: Zaire ebolavirus, Vero, read-out: EC50 EBOV
[2] = test system: BDBV mucin-domain-deleted glycoprotein pseudotyped VSV; assay: microbe, parasite or virus in culture; assay type: cell-based, Bundibugyo ebolavirus; settings: Vesicular stomatitis virus, Vero, read-out: EC50 BDBV

SMILES	EC50 ([1]; 24 h) [nM]	EC50 ([2]; 24 h) [nM]	EC50 [1] [nM]	EC50 [2] [nM]
CC(NC(=O)C1CCCN1)C12CC3CC(CC(C3)C1)C2 (stereo in doubt) [Example D43, (2R)-N-[1-(adamantan-1-yl)ethyl] pyrrolidine-2-carboxamide]	4600	2500		
O=C(CC12CC3CC(C1)CC(c1ccccc1)(C3)C2)NCC(=O)N1CCC2(CCN(Cc3ccccc3)C2)C1 (centres unmarked) [Example A11]			200	230
O=C(CNC(=O)C12CC3CC(CC1C3)C2)N1CCN(Cc2ccccc2)CC1 [Example A18]			> 10000	> 10000
O=C(NC1CCN(Cc2ccccc2)CC1)C12CC3CC(CC1C3)C2 [Example A21]			> 10000	> 10000
CN(CCN(C)C(=O)C12CC3CC(C1)CC(c1ccccc1)(C3)C2)Cc1ccccc1 [Example A22]			260	220
CN(C(=O)C12CC3CC(C1)CC(c1ccccc1)(C3)C2)C1CCN(Cc2ccccc2)CC1 [Example A23]			210	170
CN1CC[C@@H](NC(=O)CC23CC4CC(C2)CC(c2ccccc2)(C4)C3)C1 [Example A40]			310	160
O=C(CC12CC3CC(CC(C3)C1)C2)N1CC2CC1CN2Cc1ccccc1 (centres unmarked) [Example A53]			9200	9000
COC(=O)c1ccc(COc2ccccc2CN2CC3CC2CN3C(=O)CC23CC4CC(CC(C4)C2)C3)cc1 (centres unmarked) [Example A57]			2900	> 10000
COC(=O)c1ccc(COc2ccccc2CN2CCC3(CCN(C(=O)CNC(=O)CC45CC6CC(CC(C6)C4)C5)C3)C2)cc1 (centres unmarked) [Example A59]			1100	1500
O=C(NC1CCNCC1)C12CC3CC(C1)CC(c1ccc([N+](=O)[O-])cc1)(C3)C2 [Example A76]			1050	1060
CC12CC3CC(C(=O)NCC4(O)CNC4)(C1)CC(c1ccccc1)(C3)C2 (centres unmarked) [Example A101]			> 1000	> 1000
COC(=O)[C@H]1CN(C(=O)C23CC4CC(C)(C2)CC(c2ccccc2)(C4)C3)CCN1 (some centres unmarked) [Example A106]			> 1000	> 1000
CCOC12CC3CC(C1)CC(C(=O)NC1CCNCC1)(C3)C2 [Example A113]			> 1000	> 1000
N[C@H]1CC[C@H](NC(=O)C23CC4CC(C(=O)N5CCCC5)(C2)CC(c2ccccc2)(C4)C3)CC1 (some centres unmarked) [Example A114]			> 1000	> 1000
N[C@H]1CC[C@H](NC(=O)C23CC4CC(CO)(C2)CC(c2ccccc2)(C4)C3)CC1 (stereo partly drawn) [Example A116, trans-N-(4-aminocyclohexyl)-3-(hydroxymethyl)-5-phenyladamantane-1-carboxamide]			> 1000	> 1000
CCN1CCN(C(=O)C23CC4CC(C2)CC(c2ccc(C)cc2)(C4)C3)CC1 [Example B16, 1-ethyl-4-{[3-(4-methylphenyl)adamantan 1-yl]carbonyl} piperazine]	1000	900		
CC(C)C(NC(=O)C12CC3CC(CC(C3)C1)C2)C(=O)NC1CCN(Cc2ccccc2)CC1 (centres unmarked) [Example B17, 2-(adamantan-1-ylformamido)-N-(1-benzylpiperidin-4-yl)-3-methylbutanamide]	> 5000	< 5000		

SMILES	EC50 ([1]; 24 h) [nM]	EC50 ([2]; 24 h) [nM]	EC50 [1] [nM]	EC50 [2] [nM]
Cc1ccc(C23CC4CC(CC(C(=O)N5CCN(CCO)CC5)(C4)C2)C3)cc1 [Example B18, 2-(4-{[3-(4-methylphenyl)adamantan-1-yl]carbonyl}piperazin-1-yl)ethan-1-ol]	> 5000	> 5000		
O=C(NC1CCNCC1)C12CC3CC(CC(C3)C1)C2 [Example B19, N-(piperidin-4-yl)adamantane-1-carboxamide]	1100	> 1000		
NCc1ccc(OCC23CC4CC(C2)CC(c2ccccc2)(C4)C3)cc1 [Example C17, {4-[(3-phenyladamantan-1-yl)methoxy]phenyl}methanamine]			> 1000	1200
COc1ccc(OCC(O)CNCC23CC4CC(CC(C4)C2)C3)c(C(C)(C)C)c1 (centres unmarked) [Example D2, (adamantan-1-ylmethyl) [3-(2-tert-butyl-4-methoxyphenoxy)-2-hydroxypropyl]amine]	680	620		
CCC(NCC(O)COc1ccccc1C(C)C)C12CC3CC(CC(C3)C1)C2 (centres unmarked) [Example D3]	1290			
COc1cccc(COCC(O)CNCC23CC4CC(CC(C4)C2)C3)c1 (centres unmarked) [Example D6]	3450	1500		
O=C(CN1CCN(CCC23CC4CC(CC(C4)C2)C3)CC1)N1CCCCC1 [Example D7, 2-{4-[2-(adamantan-1-yl)ethyl]piperazin-1-yl}-1-(piperidin-1-yl) ethan-1-one]	6000	2600		
CCC1CCCCN1CC(O)COCCC12CC3CC(CC(C3)C1)C2 (centres unmarked) [Example D9, 1-[2-(adamantan-1-yl)ethoxy]-3-(2-ethylpiperidin-1-yl)propan-2-ol hydrochloride]	250	210		
OC(COCCC12CC3CC(CC(C3)C1)C2)CN1CCc2ccccc2C1 (centres unmarked) [Example D14, 1-[2-(adamantan-1-yl)ethoxy]-3-(1,2,3,4-tetrahydroisoquinolin-2-yl) propan-2-ol]	2100	2670		
OC(COCCC12CC3CC(CC(C3)C1)C2)CN1CCN(c2ccccn2)CC1 (centres unmarked) [Example D15, 1-[2-(adamantan-1-yl)ethoxy]-3-[4-(pyridin-2-yl)piperazin-1-yl] propan-2-ol]	2900	2800		
OCCN(CCO)CC(O)COCCC12CC3CC(CC(C3)C1)C2 (centres unmarked) [Example D17, 2-({3-[2-(adamantan-1yl)ethoxy]-2-hydroxypropyl}(2-hydroxyethyl)amino)ethan-1-ol]	8800	600		
OC(COC12CC3CC(CC(C3)C1)C2)CN1CCc2ccccc2C1 (centres unmarked) [Example D18, 1-(adamantan-1-yloxy)-3-(1,2,3,4-tetrahydroisoquinolin-2-yl)propan-2-ol]	> 10000			
COc1ccccc1N1CCN(CC(O)COC23CC4CC(CC(C4)C2)C3)CC1 (centres unmarked) [Example D19, 1-(adamantan-1-yloxy)-3-[4-(2-methoxyphenyl)piperazin-1-yl] propan-2-ol]	> 10000			
CC1CCCCN1CC(O)COC12CC3CC(CC(C3)C1)C2 (centres unmarked) [Example D20, 1-(adamantan-1-yloxy)-3-(2-methylpiperidin-1-yl)propan-2-ol]	> 10000			
CN1CCCN(CC(O)COc2ccc(C34CC5CC(CC(C5)C3)C4)cc2)CC1 (centres unmarked) [Example D30, 1-[4-(adamantan-1-yl)phenoxy]-3-(4-methyl-1,4-diazepan-1-yl)propan-2-ol]	190	470		
OC(COc1ccc(C23CC4CC(CC(C4)C2)C3)cc1)CN1CCN(Cc2ccc3c(c2)OCO3)CC1 (centres unmarked) [Example D31, 1-[4-(adamantan-1-yl)phenoxy]-3-[4-(2H-1,3-benzodioxo1-5-ylmethyl)piperazin-1-yl]propan-2-ol]	230	1030		
CN(C)CCNS(=O)(=O)c1ccc(C23CC4CC(CC(C4)C2)C3)cc1 [Example D33, 4-(adamantan-1-yl)-N-[2-(dimethylamino)ethyl] benzene-1-sulfonamide]	440	420		
CN1CCN(c2nc(C34CC5CC(CC(C5)C3)C4)cs2)CC1 [Example D35, 1-[4-(adamantan-1-yl)-1,3-thiazol-2-yl]-4-methylpiperazine]	440	620		
